Test system: U2OS
Test: Cell death and apoptosis in U2OS cells exposed to cytotoxic agents (staurosporine, rotenone, antimycin A, menadione, mitoxantrone) under a krypton atmosphere, read by automated fluorescence microscopy
Type: cell-based
Details: cells kept in an atmosphere formed of krypton, measured after 6 and 16 hours of incubation
Excerpt: Des essais ont été réalisés pour démontrer que le krypton présente un effet protecteur cérébral de par sa capacité à protéger la cellule du phénomène de la mort cellulaire programmée ou apoptose, qui est la conséquence ultime des neuro-intoxications telles que décrites dans le syndrome d'ischémie-reperfusion, d'addictions... […]
Les cellules ont été ensuite analysées dans un automate BD Pathway Fluorescence Microscope afin de déterminer les paramètres suivants : • apoptose cellulaire définit par GFP-H2B ou DAPI-condensation chromatine mesurable), • autophagie définit par GFP-LC3 puncta, • nécrose définit par l'exsudation de HMGB1 du noyau, • aberrations mitotiques définit par GFP-H2B et Red-Centrin, • niveau de stress ER définit par GFP-G3B puncta, • cycle cellulaire définit par l'incorporation de […] dans les cellules en phase S, ainsi que l'analyse du DNA. […]

## [Kr] [krypton]
  capacités fonctionnelles et intégrité physiques des cellules: conservent leurs capacités fonctionnelles ainsi que leur intégrité physiques
Apoptosis defined by GFP-H2B or DAPI chromatin condensation
  signes d'apoptose cellulaire: diminue les signes d'apoptose cellulaire

From patent EP2608770B1, “INHALABLE GASEOUS DRUG CONTAINING KRYPTON FOR TREATING NEURO-INTOXICATION” (L'Air Liquide Société Anonyme pour l'Etude et …, priority 2010, dated 2012)
